From paper PMC5603853, “Physicochemical, Stress Degradation Evaluation and Pharmacokinetic Study of AZGH102, a New Synthesized COX2 Inhibitors after I.V. and Oral Administration in Male and Female Rats” (Iranian Journal of Pharmaceutical Research : IJPR, 2017)
In brackets after ≈: the same amount, converted by molar mass. Like-named read-outs stand apart in the source and are kept apart here.

How the values were obtained:
[1] = Forced degradation stability study (ICH guideline); type: physicochemical; design: Forced tests results, Mean ±SD: unit not given here; conditions: for Forced tests results, Mean ±SD: n=3
Protocol: The stability study was conducted according to forced degradation protocol ICH guideline for new drug substance ([9]-[11]). The study evaluated the stability of AZGH 102 at acidic, basic, and neutral medium. Moreover, the effect of oxidative condition (H2O2, 3 and 30%), thermal degradation at solid state and photolysis on the stability of AZGH 102 was evaluated.

[2] = Pharmacokinetic study after intravenous administration; type: in vivo; conditions: intravenous 10 mg/Kg; for AUC(0-inf) / C0 / Vd / clearance / half-life / k el: rat, plasma; for half-life: read-out: t1/2 β (converted); for k el: read-out: β (elimination rate constant) (converted)
Protocol: (§1) Male and female Wistar rats weighting 250 ± 10 g were used. They were housed in animal center of author’s institute. Each rat was housed in a cage which was kept at 25 ± 1 °C temperature and controlled humidity with 12 h light/dark cycle. Animals were fasted overnight before the experiment and had free access to water. The study protocol was approved by the local ethics committee for animal experiments of Shahid Beheshti University of Medical Sciences (Tehran, Iran).
(§2) The rats (12 male and 12 female) were randomly divided into four groups (6 rats/group) and assigned to receive AZGH 102 solution via intravenous (IV) and/or oral administration. The administered doses in both male and female groups for IV and oral studies were 10 mg/Kg and 20 mg/Kg, respectively. Blood samples were collected from the tail vein immediately prior to (blank sample) and at 0.08, 0.25, 0.5, 1, 2, 4, 6, 8, 10, 21 and 22 h after drug administration into heparinized micro-tubes. Blood samples were centrifuged at 1000 g for 10 min and the separated plasma samples were kept at – 20 °C until analysis.
(§3) Two-compartmental model was selected and pharmacokinetic analyses were performed using WinNonlin software (Pharsight Corporation, Mountain View, USA, Version 3.2). The following pharmacokinetic parameters were estimated: terminal elimination half-life (t1/2), area under the plasma concentration versus time curve from zero to the infinity (AUC 0-∞), distribution and elimination rate constants (α, β), y intercepts (A, B), volume of distribution (Vd), and total body clearance (CL). The peak plasma concentration (Cmax) and the time to reach Cmax (Tmax) for oral dose were obtained directly from the observed individual plasma concentration-time data.

[3] = Pharmacokinetic study after oral administration; type: in vivo; conditions: for Cl / Ka / Vd / α (distribution rate constant) / AUC(0-inf) / Cmax / Tmax / half-life / k el: oral 20 mg/Kg; for bioavailability / AUC(0-inf) / Cmax / Tmax / half-life / k el: rat, plasma; for bioavailability: oral 20 mg/Kg vs IV 10 mg/Kg, read-out: F (absolute bioavailability); for half-life: read-out: t1/2 β (converted); for k el: read-out: β (elimination rate constant) (converted)
Protocol: as §1, §2, §3

[4] = system: COX-2; conditions: in comparison with celecoxib; cited from earlier work
[5] = Aqueous solubility (OECD Guideline No. 105); type: physicochemical; conditions: thermodynamic from solid; water; 3 replications
Protocol: (§4) Melting point was determined with an Electrothermal 9200 apparatus (UK). Moreover, aqueous solubility and octanol/water partition coefficient of the synthesized derivative was determined according to Organisation for Economic Co-operation and Development (OECD) Guideline for Testing of Chemicals, No.105 and No. 107, respectively ([6]-[8]).

[6] = Octanol/water partition coefficient (OECD Guideline No. 107); type: physicochemical; conditions: 3 replications, read-out: log P (logarithm of octanol/water partition coefficient)
Protocol: as §4

Forced tests results, Mean ±SD ([1]; Hydrolysis (Acid), fraction recovered intact): 0.94±0.02 | Forced tests results, Mean ±SD ([1]; Hydrolysis (Base)): 0.92±0.01 | Forced tests results, Mean ±SD ([1]; Hydrolysis (Buffer pH=7)): 0.95±0.04 | Forced tests results, Mean ±SD ([1]; Oxidative stress (H2O2-3%)): 0.94±0.02 | Forced tests results, Mean ±SD ([1]; Oxidative stress (H2O2-30%)): 0.90±0.04 | Forced tests results, Mean ±SD ([1]; Photodegradation (Acid)): 0.93±0.02 | Forced tests results, Mean ±SD ([1]; Photodegradation (Base)): 0.96±0.04 | Forced tests results, Mean ±SD ([1]; Photodegradation (Buffer pH=7)): 0.93±0.02 | Forced tests results, Mean ±SD ([1]; Thermal Degradation (solid phase)): 0.95±0.03 | recovered intact ([1]; in all of the examined stress conditions): more than 90% | α (distribution rate constant) ([2]; female Wistar rats): 3.87 ± 1.11 h⁻¹ | α (distribution rate constant) ([2]; male Wistar rats): 2.98 ± 0.67 h⁻¹ | AUC(0-inf) ([2]; female Wistar rats): 85800 ± 9230 ng·h/mL | C0 ([2]; female Wistar rats): 100 ± 14.1 µg/mL | Vd ([2]; female Wistar rats): 0.101 ± 0.0137 L | clearance ([2]; female Wistar rats): 0.491 mL/min | half-life ([2]; female Wistar rats): 2.38 ± 0.12 h | k el ([2]; female Wistar rats): 0.00015 s⁻¹ | AUC(0-inf) ([2]; male Wistar rats): 91300 ± 17100 ng·h/mL | C0 ([2]; male Wistar rats): 113 ± 7.99 µg/mL | Vd ([2]; male Wistar rats): 0.0997 ± 0.0152 L | clearance ([2]; male Wistar rats): 0.47 mL/min | half-life ([2]; male Wistar rats): 2.23 ± 0.74 h | k el ([2]; male Wistar rats): 8.06e-05 s⁻¹ | Cl ([3]; female Wistar rats): 29.15 ± 0.47 mL/h | Ka ([3]; female Wistar rats): 1.26 ± 0.34 h⁻¹ | Vd ([3]; female Wistar rats): 156.27 ± 4.54 mL | α (distribution rate constant) ([3]; female Wistar rats): 3.70 ± 1.56 h⁻¹ | Cl ([3]; male Wistar rats): 27.47 ± 1.81 mL/h | Ka ([3]; male Wistar rats): 0.69 ± 0.15 h⁻¹ | Vd ([3]; male Wistar rats): 147.04 ± 9.43 mL | α (distribution rate constant) ([3]; male Wistar rats): 5.79 ± 2.33 h⁻¹ | bioavailability ([3]; female Wistar rats): 25.6 ± 0.4% | bioavailability ([3]; male Wistar rats): 27 ± 1.85% | AUC(0-inf) ([3]; female Wistar rats): 43900 ± 710 ng·h/mL | Cmax ([3]; female Wistar rats): 16.5 ± 1.05 µg/mL | Tmax ([3]; female Wistar rats): 0.5 h | half-life ([3]; female Wistar rats): 3.72 ± 0.1 h | k el ([3]; female Wistar rats): 5.28e-05 s⁻¹ | AUC(0-inf) ([3]; male Wistar rats): 49300 ± 3380 ng·h/mL | Cmax ([3]; male Wistar rats): 19.6 ± 1.96 µg/mL | Tmax ([3]; male Wistar rats): 0.5 h | half-life ([3]; male Wistar rats): 3.71 ± 0.16 h | k el ([3]; male Wistar rats): 5.28e-05 s⁻¹ | solubility [5]: 2.7 ± 0.09 µg/mL (≈ 6.26 µM) | logP [6]: 3.75 ± 0.001
Structure (SMILES): CS(=O)(=O)c1ccc(-c2cc(C(=O)O)c3cccc(C(=O)c4ccccc4)c3n2)cc1 [AZGH 102, 8-benzoyl-2-(4-(methylsulfonyl)phenyl)quinoline-4-carboxylic acid]
selectivity index (COX-1/COX-2 inhibitory potency) [4]: improved selectivity index
